Source: ChEMBL document CHEMBL1201862, “PubChem BioAssay data set” (2004)
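Five compound concentrations were applied to cells in 96-well plates for 48 hours; endpoints were derived by simple linear interpolation of the resulting dose-response curve. GI50 is the concentration that inhibits growth by half.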 Active and inactive are the calls of the source. Cut-off read from the data, not from the text of the source: active = GI50 up to about 1.1 µM and inactive = higher.

What was measured:
Experiment in all cases: growth of human tumour cells (NCI), 48 h
ACHN = test system: ACHN
HT-29 = test system: HT-29
KM12 = test system: KM12
LOX IMVI = test system: LOX IMVI
MOLT-4 = test system: MOLT-4
NCI-H460 = test system: NCI-H460
OVCAR-3 = test system: OVCAR-3
OVCAR-5 = test system: OVCAR-5
PC-3 = test system: PC-3
RPMI-8226 = test system: RPMI-8226
SF-539 = test system: SF-539
SK-MEL-2 = test system: SK-MEL-2
SK-MEL-5 = test system: SK-MEL-5
SN12C = test system: SN12C
U-251 = test system: U-251
UACC-257 = test system: UACC-257
UACC-62 = test system: UACC-62
SNB-75 = test system: SNB-75
SR = test system: SR
NCI/ADR-RES = test system: NCI/ADR-RES

Measured: GI50

C=C1CC/C=C(/C(=O)O)CC[C@H]2[C@@H]1CC2(C)C
inactive: ACHN > 100 µM | HT-29 > 100 µM | KM12 > 100 µM | LOX IMVI > 100 µM | MOLT-4 > 100 µM | NCI-H460 > 100 µM | OVCAR-3 > 100 µM | OVCAR-5 > 100 µM | PC-3 > 100 µM | RPMI-8226 > 100 µM | SF-539 > 100 µM | SK-MEL-2 > 100 µM | SK-MEL-5 > 100 µM | SN12C > 100 µM | U-251 > 100 µM | UACC-257 > 100 µM | UACC-62 > 100 µM

CCCO/S(=N\S(=O)(=O)c1ccccc1)c1ccccc1[N+](=O)[O-] (centres undefined)
inactive: ACHN > 100 µM | HT-29 > 100 µM | KM12 > 100 µM | LOX IMVI > 100 µM | MOLT-4 > 100 µM | NCI-H460 > 100 µM | OVCAR-3 > 100 µM | OVCAR-5 > 100 µM | RPMI-8226 > 100 µM | SF-539 > 100 µM | SK-MEL-2 > 100 µM | SK-MEL-5 > 100 µM | SN12C > 100 µM | SNB-75 > 100 µM | SR > 100 µM | U-251 > 100 µM | UACC-257 > 100 µM | UACC-62 > 100 µM

CC1(C)CC(=O)C(C(=O)C(=O)NC2=C(Cl)C(=O)c3ccccc3C2=O)C(=O)C1
inactive: ACHN 91.4 µM | HT-29 80.7 µM | KM12 42.3 µM | LOX IMVI 80.9 µM | MOLT-4 20.1 µM | NCI-H460 51.2 µM | OVCAR-3 58.6 µM | OVCAR-5 > 100 µM | RPMI-8226 34.8 µM | SF-539 > 100 µM | SK-MEL-2 > 100 µM | SK-MEL-5 73.8 µM | SN12C 73.6 µM | SNB-75 71.1 µM | SR 30.8 µM | U-251 82.2 µM | UACC-257 > 100 µM | UACC-62 45.5 µM

Cc1cc(Br)c(O)c(-c2cscn2)c1
inactive: ACHN 14 µM | HT-29 27.3 µM | LOX IMVI 10.2 µM | NCI-H460 21.4 µM | NCI/ADR-RES 24 µM | OVCAR-3 52.5 µM | OVCAR-5 20.6 µM | PC-3 10.3 µM | RPMI-8226 4.81 µM | SF-539 20 µM | SK-MEL-2 19.3 µM | SK-MEL-5 16.8 µM | SN12C 10.5 µM | UACC-257 > 10 µM | UACC-62 12.7 µM

C=C1c2[nH]c3ccccc3c2CC(C(=O)O)N1C(O)c1ccc(S(=O)(=O)O)cc1 (centres undefined)
inactive: ACHN > 100 µM | HT-29 > 100 µM | KM12 > 100 µM | LOX IMVI > 100 µM | MOLT-4 > 100 µM | NCI-H460 > 100 µM | OVCAR-3 > 100 µM | OVCAR-5 > 100 µM | RPMI-8226 > 100 µM | SF-539 > 100 µM | SK-MEL-2 > 100 µM | SK-MEL-5 > 100 µM | SN12C > 100 µM | SNB-75 65.6 µM | SR > 100 µM | U-251 > 100 µM | UACC-257 > 100 µM | UACC-62 > 100 µM

CC1=C(C(=O)NCc2ccccc2)C(c2ccccc2C)C(C(=O)NCc2ccccc2)=C(C)N1
inactive: ACHN 20 µM | HT-29 27.2 µM | KM12 24.8 µM | LOX IMVI 17.7 µM | MOLT-4 27.1 µM | NCI-H460 19.5 µM | OVCAR-3 23.5 µM | OVCAR-5 35.9 µM | RPMI-8226 29.9 µM | SF-539 24.6 µM | SK-MEL-2 18.5 µM | SK-MEL-5 35.5 µM | SN12C 25.5 µM | SNB-75 > 43.8 µM | SR 24.5 µM | U-251 24.5 µM | UACC-257 10.7 µM | UACC-62 17.2 µM

O=C(NCCCCCCNC(=O)c1cccc2ccccc12)c1cccc2ccccc12
inactive: ACHN 31.4 µM | HT-29 > 100 µM | KM12 > 100 µM | LOX IMVI 14.2 µM | MOLT-4 > 100 µM | NCI-H460 42.5 µM | OVCAR-3 28.9 µM | OVCAR-5 > 100 µM | RPMI-8226 > 100 µM | SF-539 11.8 µM | SK-MEL-2 12.2 µM | SK-MEL-5 > 100 µM | SN12C 25.7 µM | SNB-75 3.29 µM | SR > 100 µM | U-251 18.3 µM | UACC-257 74.3 µM | UACC-62 > 100 µM

[N-]=[N+]=NC(c1cn(C2CC(O)C(CO)O2)c(=O)[nH]c1=O)C(Cl)Br (centres undefined)
inactive: ACHN > 100 µM | HT-29 > 100 µM | KM12 > 100 µM | LOX IMVI > 100 µM | MOLT-4 > 100 µM | NCI-H460 > 100 µM | RPMI-8226 > 100 µM | SF-539 > 100 µM | SK-MEL-2 > 100 µM | SK-MEL-5 > 100 µM | SN12C > 100 µM | SNB-75 > 100 µM | SR > 100 µM | U-251 > 100 µM

Cc1cc2c(cc1Cl)SC(NS(=O)(=O)c1ccc(Cl)cc1)=NS2(=O)=O
inactive: ACHN > 100 µM | HT-29 47.4 µM | KM12 > 100 µM | LOX IMVI 49.2 µM | MOLT-4 16.9 µM | NCI-H460 79.8 µM | NCI/ADR-RES > 100 µM | OVCAR-3 19.3 µM | OVCAR-5 35.4 µM | RPMI-8226 57 µM | SF-539 18.3 µM | SK-MEL-2 54 µM | SK-MEL-5 46 µM | SN12C > 100 µM | SNB-75 35.2 µM | SR 10.3 µM | U-251 > 100 µM | UACC-257 46.8 µM | UACC-62 > 100 µM

CC(C)C1COC(c2cccc(C3=N[C@@H](C(C)C)CO3)n2)=N1 (some centres undefined)
inactive: ACHN > 100 µM | HT-29 > 100 µM | KM12 > 100 µM | LOX IMVI > 100 µM | MOLT-4 > 100 µM | NCI-H460 > 100 µM | OVCAR-3 > 100 µM | OVCAR-5 > 100 µM | RPMI-8226 > 100 µM | SF-539 > 100 µM | SK-MEL-2 > 100 µM | SK-MEL-5 > 100 µM | SN12C > 100 µM | SNB-75 > 100 µM | SR > 100 µM | U-251 59.3 µM

O=[N+]([O-])c1ccc2c(c1)OCCOCCOc1ccc([N+](=O)[O-])cc1OCCOCCO2
inactive: ACHN > 100 µM | HT-29 > 100 µM | KM12 > 100 µM | LOX IMVI > 100 µM | MOLT-4 > 100 µM | NCI-H460 > 100 µM | OVCAR-3 > 100 µM | OVCAR-5 > 100 µM | RPMI-8226 > 100 µM | SF-539 > 100 µM | SK-MEL-2 > 100 µM | SK-MEL-5 > 100 µM | SN12C > 100 µM | SNB-75 > 100 µM | SR > 100 µM | U-251 > 100 µM | UACC-257 > 100 µM | UACC-62 > 100 µM
